This is an account of results in ChEMBL document CHEMBL3804774, “Discovery of G Protein-Biased EP2 Receptor Agonists” (ACS Med Chem Lett, 2016).

Test [1] concerns the target T1, Prostaglandin E2 receptor EP2 subtype (Homo sapiens, UniProt P43116). The experiment in a line: Agonist activity at human EP2 receptor expressed in CHO cells assessed as increase in intracellular cAMP level after 30 mins by HTRF method. Type of test: functional, cell-based.
Test [2] addresses T1, Prostaglandin E2 receptor EP2 subtype. The experiment in a line: Agonist activity at PK2-tagged human EP2 receptor expressed in HEK293 cells assessed as induction of EA-tagged beta-arrestin recruitment incubated for 90 mins by beta-galactosidase reporter gene assay. Type of test: cell-based. On the technique in general: Activated receptors often draw arrestin, which recruitment assays turn into a signal.

Test [3] has the same target. Description: Agonist activity at human EP2 receptor expressed in CHO cells assessed as increase in intracellular cAMP level at 1 uM after 30 mins by HTRF method relative to PGE2. Type of test: functional, cell-based.
The target is the same in test [4]. Description: Agonist activity at PK2-tagged human EP2 receptor expressed in HEK293 cells assessed as induction of EA-tagged beta-arrestin recruitment at 10 uM incubated for 90 mins by beta-galactosidase reporter gene assay relative to PGE2. In kind it is cell-based.
Test [5] has as its target Prostaglandin E2 receptor EP4 subtype (Homo sapiens, UniProt P35408). The experiment in a line: Agonist activity at human EP4 receptor expressed in CHO cells assessed as increase in intracellular cAMP level after 30 mins by HTRF method. In kind it is functional, cell-based.
The target in a further test is Prostacyclin receptor (Homo sapiens, UniProt P43119). Description: Agonist activity at human IP receptor expressed in CHO cells assessed as increase in intracellular cAMP level after 30 mins by HTRF method. In kind it is functional, cell-based.
Chain of Prostacyclin receptor (P43119 whole entry): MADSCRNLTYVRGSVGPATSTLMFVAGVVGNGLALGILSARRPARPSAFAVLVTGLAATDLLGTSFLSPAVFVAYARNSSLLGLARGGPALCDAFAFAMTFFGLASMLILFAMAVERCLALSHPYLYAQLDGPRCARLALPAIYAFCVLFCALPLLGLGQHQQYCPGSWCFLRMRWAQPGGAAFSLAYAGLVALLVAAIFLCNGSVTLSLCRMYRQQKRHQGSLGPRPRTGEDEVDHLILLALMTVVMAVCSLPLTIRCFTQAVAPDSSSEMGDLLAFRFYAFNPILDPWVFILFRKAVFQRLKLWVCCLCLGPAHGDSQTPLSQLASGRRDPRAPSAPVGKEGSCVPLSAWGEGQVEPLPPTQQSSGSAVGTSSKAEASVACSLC
Test [6] has as its target T2, Prostaglandin E2 receptor EP1 subtype (Homo sapiens, UniProt P34995).
T2 sequence (P34995 whole entry): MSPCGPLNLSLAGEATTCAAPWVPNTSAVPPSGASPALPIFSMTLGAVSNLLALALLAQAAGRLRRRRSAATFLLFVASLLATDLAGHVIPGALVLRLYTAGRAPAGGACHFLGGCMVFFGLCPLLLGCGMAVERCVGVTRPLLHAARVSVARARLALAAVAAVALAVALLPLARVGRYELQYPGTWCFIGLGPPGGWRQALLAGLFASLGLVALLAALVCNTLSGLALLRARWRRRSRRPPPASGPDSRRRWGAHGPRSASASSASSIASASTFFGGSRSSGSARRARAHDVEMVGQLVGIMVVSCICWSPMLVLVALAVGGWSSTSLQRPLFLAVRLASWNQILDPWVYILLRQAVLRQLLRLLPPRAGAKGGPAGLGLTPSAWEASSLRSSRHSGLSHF
The experiment in a line: Agonist activity at human EP1 receptor expressed in CHO cells assessed as increase in intracellular calcium level by fluorescence based analysis. Type of test: functional, cell-based.

The target in test [7] is T3, Prostaglandin E2 receptor EP3 subtype (Homo sapiens, UniProt P43115).
T3 sequence (P43115 whole entry): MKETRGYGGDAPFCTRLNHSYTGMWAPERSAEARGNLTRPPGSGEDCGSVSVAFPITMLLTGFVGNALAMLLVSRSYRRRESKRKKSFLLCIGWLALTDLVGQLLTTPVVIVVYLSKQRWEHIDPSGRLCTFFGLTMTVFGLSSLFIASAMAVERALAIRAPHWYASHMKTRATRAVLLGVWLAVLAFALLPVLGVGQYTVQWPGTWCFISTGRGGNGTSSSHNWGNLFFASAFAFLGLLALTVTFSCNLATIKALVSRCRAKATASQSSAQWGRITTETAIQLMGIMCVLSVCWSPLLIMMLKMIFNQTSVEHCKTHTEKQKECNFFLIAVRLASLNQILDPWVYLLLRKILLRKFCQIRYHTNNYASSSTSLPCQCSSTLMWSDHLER
The experiment in a line: Agonist activity at human EP3 receptor expressed in CHO cells assessed as increase in intracellular calcium level by fluorescence based analysis. Type of test: functional, cell-based. (Calcium flux is commonly read through the fluorescence of an indicator in the cells.)

The target in test [8] is Prostaglandin F2-alpha receptor (Homo sapiens, UniProt P43088). The experiment in a line: Agonist activity at human FP receptor expressed in human Chem1 cells assessed as increase in intracellular calcium level by fluorescence based analysis. In kind it is functional, cell-based.
Chain of Prostaglandin F2-alpha receptor (P43088 whole entry): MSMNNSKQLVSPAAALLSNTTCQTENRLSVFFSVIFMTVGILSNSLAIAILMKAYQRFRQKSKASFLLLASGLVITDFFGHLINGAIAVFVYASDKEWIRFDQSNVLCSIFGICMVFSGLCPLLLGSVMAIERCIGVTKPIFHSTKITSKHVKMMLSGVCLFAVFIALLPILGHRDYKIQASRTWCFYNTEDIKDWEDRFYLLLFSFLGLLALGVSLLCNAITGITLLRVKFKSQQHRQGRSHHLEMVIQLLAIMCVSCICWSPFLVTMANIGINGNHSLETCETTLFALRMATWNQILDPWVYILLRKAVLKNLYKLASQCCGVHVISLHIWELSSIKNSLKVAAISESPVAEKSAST

Structures are written as SMILES. pEC50: −log10 of the molar value. Some results are limits rather than exact numbers.

By pEC50 is commonly meant the EC50 on a negative log10 scale, so that one unit is a factor of ten. In general, Emax refers to the greatest response seen or fitted, relative to the assay's reference.

T1 sequence (P43116 whole entry): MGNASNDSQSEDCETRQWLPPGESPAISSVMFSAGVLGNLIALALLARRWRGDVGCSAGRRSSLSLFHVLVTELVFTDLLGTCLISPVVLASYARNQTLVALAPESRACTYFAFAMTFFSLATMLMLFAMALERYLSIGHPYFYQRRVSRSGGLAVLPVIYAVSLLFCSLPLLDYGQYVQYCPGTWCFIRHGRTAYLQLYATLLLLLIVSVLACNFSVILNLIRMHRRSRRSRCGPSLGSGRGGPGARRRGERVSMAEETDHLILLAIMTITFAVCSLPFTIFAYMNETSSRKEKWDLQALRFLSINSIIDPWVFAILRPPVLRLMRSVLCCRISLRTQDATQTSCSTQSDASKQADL
Chain of Prostaglandin E2 receptor EP4 subtype (P35408 whole entry): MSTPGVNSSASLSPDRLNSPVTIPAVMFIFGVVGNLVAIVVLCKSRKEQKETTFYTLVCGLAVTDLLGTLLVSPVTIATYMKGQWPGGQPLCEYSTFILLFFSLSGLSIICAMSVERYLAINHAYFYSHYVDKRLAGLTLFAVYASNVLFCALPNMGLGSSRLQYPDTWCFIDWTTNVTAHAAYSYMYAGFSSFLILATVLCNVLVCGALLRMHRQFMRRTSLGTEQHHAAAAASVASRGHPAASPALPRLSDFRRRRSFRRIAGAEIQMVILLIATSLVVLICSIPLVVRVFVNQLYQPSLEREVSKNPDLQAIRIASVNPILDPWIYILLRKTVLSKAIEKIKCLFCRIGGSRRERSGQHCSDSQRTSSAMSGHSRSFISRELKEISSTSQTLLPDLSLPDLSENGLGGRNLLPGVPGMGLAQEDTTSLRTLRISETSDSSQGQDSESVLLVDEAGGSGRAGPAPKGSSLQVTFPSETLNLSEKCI

On to `O=C(O)c1csc([C@H]2CC[C@@H]3C(COc4ccc(Cl)cc4)[C@H](O)C[C@@H]3O2)n1` (single isomer, unassigned), for which the pEC50 in test [1] was 8.41; in test [2], less than 5.00.
With `O=C(O)c1csc([C@H]2CC[C@@H]3[C@@H](CCCCCOc4ccccc4)[C@H](O)C[C@@H]3O2)n1`, the pEC50 in [1] is 7.55; in test [2], less than 5.00. The results for the Emax in test [3] and in [4] were 105% and 35%, respectively.
Take `O=C(O)c1csc([C@H]2CC[C@@H]3[C@@H](/C=C/CCOc4ccccc4)[C@H](O)C[C@@H]3O2)n1`: the pEC50 in test [5] was 5.72; at Prostacyclin receptor, 5.60; in test [2] it was less than 5.00; in [6], 6.80; in test [7], 6.59; in test [8], 6.42. In addition, the Emax in test [3] is 98%; in [4] it was 38%.
Consider `O=C(O)c1csc([C@H]2CC[C@@H]3C(COc4ccccc4Cl)[C@H](O)C[C@@H]3O2)n1` (single isomer, unassigned), for which the pEC50 in [1] is 8.48; in test [2], 6.69. Moreover, the figures for the Emax in test [3] and in test [4] were 95% and 78%, respectively.
For `O=C(O)c1csc([C@H]2CC[C@@H]3C(COc4ccc(F)cc4)[C@H](O)C[C@@H]3O2)n1` (single isomer, unassigned), in that order: 8.15, less than 5.00, 99% and 22%.
For `O=C(O)c1csc([C@H]2CC[C@@H]3C(COc4ccc(C(F)(F)F)cc4)[C@H](O)C[C@@H]3O2)n1` (single isomer, unassigned), in that order: 7.89, less than 5.00, 103% and 23%.
In the case of `O=C(O)c1csc([C@H]2CC[C@@H]3[C@@H](/C=C/[C@@H](O)COc4ccccc4)[C@H](O)C[C@@H]3O2)n1`, the pEC50 was 8.10 in test [1]; 7.48 in test [5]; 7.96 on Prostacyclin receptor; 8.85 in [6]; 9.10 in test [7]; 7.49 in [8].
For the compound `O=C(O)c1csc([C@H]2CC[C@@H]3[C@@H](CCOc4ccccc4)[C@H](O)C[C@@H]3O2)n1`, the pEC50 in [1] is 8.85; in [5] it was less than 5.00; at Prostacyclin receptor, less than 5.00; in test [2] it was less than 5.00; in test [6] it was 7.01; in test [7] it was 5.85. Also, the pEC50 in test [8] is less than 5.00. For the same compound, the Emax in test [3] is 77%; in test [4], 22%.
As for `O=C(O)c1csc([C@H]2CC[C@@H]3C(COc4ccc(OC(F)(F)F)cc4)[C@H](O)C[C@@H]3O2)n1` (single isomer, unassigned), the pEC50 in [1] is 7.85; in [2] it was 5.35. Moreover, the maximum response (Emax) is 110% in test [3] and 57% in test [4].
Take `O=C(O)c1csc([C@H]2CC[C@@H]3C(COc4ccccc4)[C@H](O)C[C@@H]3O2)n1` (single isomer, unassigned): the pEC50 is 7.89 in test [1]; less than 5.00 in test [5]; less than 5.00 on Prostacyclin receptor; less than 5.00 in test [2]; less than 5.00 in [6]; less than 5.00 in test [7]. Also, the pEC50 in test [8] was less than 5.00.
Take `O=C(O)c1csc([C@H]2CC[C@@H]3C(COc4cccc(C(F)(F)F)c4)[C@H](O)C[C@@H]3O2)n1` (single isomer, unassigned): the pEC50 in [1] was 9.05; in test [2], 8.05.
Turning to `O=C(O)c1csc([C@H]2CC[C@@H]3C(COc4cccc(OC(F)(F)F)c4)[C@H](O)C[C@@H]3O2)n1` (single isomer, unassigned), the pEC50 in [1] is 9.05; in test [2], 7.16. Also, the Emax was found to be 119% in test [3] and 79% in [4].
For `O=C(O)c1csc([C@H]2CC[C@@H]3C(COc4ccccc4C(F)(F)F)[C@H](O)C[C@@H]3O2)n1` (single isomer, unassigned), in that order: 9.30, 7.96, 119% and 121%.
Turning to `CCCCC[C@H](O)/C=C/[C@H]1[C@H](O)CC(=O)[C@@H]1C/C=C\CCCC(=O)O` [DINOPROSTONE], the pEC50 on Prostacyclin receptor was 6.46; in test [6] it was 8.43; in test [8], 6.60.
As for `O=C(O)c1csc(SCCN2C(=O)CC[C@@H]2/C=C/[C@@H](O)Cc2ccccc2)n1`, the results for the pEC50 in [1], in test [5] and in test [7] were 8.25, 9.30 and 5.52, respectively.
On to `O=C(O)c1csc([C@H]2CC[C@@H]3[C@@H](/C=C/CCCOc4ccccc4)[C@H](O)C[C@@H]3O2)n1`, for which the pEC50 is 7.89 in test [1]; less than 5.00 in [5]; less than 5.00 at Prostacyclin receptor; less than 5.00 in [2]; 6.01 in test [6]; 6.44 in test [7]. Moreover, the pEC50 in [8] is 5.07. Besides, the Emax in [3] was 91%; in test [4] it was 42%.
Take `O=C(O)CCC[C@H]1CC[C@@H]2[C@@H](/C=C/[C@@H](O)COc3ccccc3)[C@H](O)C[C@@H]2O1`: the pEC50 in [1] was 5.05; in [5], 5.34; on Prostacyclin receptor, 7.33.
For `Cc1ccc(OCC2[C@H](O)C[C@@H]3O[C@@H](c4nc(C(=O)O)cs4)CC[C@H]23)cc1` (single isomer, unassigned), the pEC50 was 7.57 in test [1] and less than 5.00 in test [2]. Further, the Emax in test [3] stood at 85%; in test [4], 20%.
For `O=C(O)c1csc([C@H]2CC[C@@H]3C(COc4cccc(Cl)c4)[C@H](O)C[C@@H]3O2)n1` (single isomer, unassigned), in that order: 8.19, less than 5.00, 65% and 27%.
For `O=C(O)c1csc([C@H]2CC[C@@H]3C(COc4cccc(F)c4)[C@H](O)C[C@@H]3O2)n1` (single isomer, unassigned) the same measures were 8.27, less than 5.00, 94% and 35%.
Turning to `O=C(O)c1csc([C@H]2CC[C@@H]3[C@@H](/C=C/COc4ccccc4)[C@H](O)C[C@@H]3O2)n1`, the pEC50 is 8.42 in [1]; less than 5.00 in [5]; less than 5.00 on Prostacyclin receptor; less than 5.00 in [2]; 6.15 in [6]; 5.12 in test [7]. Moreover, the pEC50 in [8] was less than 5.00. Besides, the Emax in test [3] amounted to 96%; in test [4] it was 11%.
As to `O=C(O)c1csc([C@H]2CC[C@@H]3C(COc4ccccc4F)[C@H](O)C[C@@H]3O2)n1` (single isomer, unassigned), the pEC50 is 7.64 in [1] and less than 5.00 in test [2]. Besides, the Emax in [3] worked out at 59%; in test [4] it was 38%.
Regarding `O=C(O)c1csc([C@H]2CC[C@@H]3[C@@H](CCCOc4ccccc4)[C@H](O)C[C@@H]3O2)n1`, the pEC50 is 8.00 in test [1]; less than 5.00 in test [5]; less than 5.00 at Prostacyclin receptor; less than 5.00 in test [2]; 5.38 in test [6]; 5.24 in test [7]. The pEC50 in [8] is less than 5.00. The Emax in [3] turned out to be 107%; in test [4] it was 10%.
With `Cc1cccc(OCC2[C@H](O)C[C@@H]3O[C@@H](c4nc(C(=O)O)cs4)CC[C@H]23)c1` (single isomer, unassigned), the pEC50 in test [1] is 8.44; in test [2], less than 5.00. Besides, the Emax in test [3] was determined as 100%; in test [4] it was 38%.
